The text below walks through data of ChEMBL document CHEMBL3045040, “Synthesis and antiproliferative activity of 1-[(sub)]-6-fluoro-3-[(sub)]-1, 3,4-oxadiazol-2-yl-7-piperazino-1, 4-dihydro-4-quinolinone derivatives” (Med Chem Res, 2007).

In brackets after ≈: the same amount, converted by molar mass.

In this assay the test system is A549. The assay can be described thus: Cytotoxicity against Homo sapiens (human) A549 cells assessed as cell viability by MTT assay. The assay is classed as functional, cell-based. (Formazan colour is commonly taken as a measure of viable cells.)
On to `O=c1c(-c2nnc(-c3ccccc3)o2)cn(C2CC2)c2cc(N3CCNCC3)c(F)cc12`, for which the IC50 was 46 µg/mL (≈ 107 µM).

With `O=c1c(-c2nnc(-c3ccc([N+](=O)[O-])cc3)o2)cn(C2CC2)c2cc(N3CCNCC3)c(F)cc12`, the IC50 turned out to be 8 µg/mL (≈ 16.8 µM).

Regarding `O=c1c(-c2nnc(-c3ccc(Nc4ccccc4)cc3)o2)cn(C2CC2)c2cc(N3CCNCC3)c(F)cc12`, the IC50 amounted to 52 µg/mL (≈ 99.5 µM).

With `O=c1c(-c2nnc(COc3ccc4ccccc4c3)o2)cn(C2CC2)c2cc(N3CCNCC3)c(F)cc12`, the IC50 turned out to be 16 µg/mL (≈ 31.3 µM).

As to `O=c1c(-c2nnc(COc3cccc4ccccc34)o2)cn(C2CC2)c2cc(N3CCNCC3)c(F)cc12`, the IC50 was determined as 96.2 µg/mL (≈ 188 µM).

Take `O=c1c(-c2nnc(Cc3ccccc3)o2)cn(C2CC2)c2cc(N3CCNCC3)c(F)cc12`: the IC50 was 86 µg/mL (≈ 193 µM).

As to `O=c1c(-c2nnc(COc3ccccc3)o2)cn(C2CC2)c2cc(N3CCNCC3)c(F)cc12`, the IC50 was 48.6 µg/mL (≈ 105 µM).

Turning to `CCn1cc(-c2nnc(-c3ccccc3)o2)c(=O)c2cc(F)c(N3CCNCC3)cc21`, the IC50 was determined as 112 µg/mL (≈ 267 µM).

Consider `CCn1cc(-c2nnc(-c3ccc([N+](=O)[O-])cc3)o2)c(=O)c2cc(F)c(N3CCNCC3)cc21`, for which the IC50 was 74.3 µg/mL (≈ 160 µM).

For the compound `CCn1cc(-c2nnc(-c3ccc(Nc4ccccc4)cc3)o2)c(=O)c2cc(F)c(N3CCNCC3)cc21`, the IC50 was 88.6 µg/mL (≈ 174 µM).

Turning to `CCn1cc(-c2nnc(COc3ccc4ccccc4c3)o2)c(=O)c2cc(F)c(N3CCNCC3)cc21`, the IC50 stood at 80.2 µg/mL (≈ 161 µM).

Consider `CCn1cc(-c2nnc(COc3cccc4ccccc34)o2)c(=O)c2cc(F)c(N3CCNCC3)cc21`, for which the IC50 turned out to be 127 µg/mL (≈ 254 µM).

Turning to `CCn1cc(-c2nnc(Cc3ccccc3)o2)c(=O)c2cc(F)c(N3CCNCC3)cc21`, the IC50 came out at 118 µg/mL (≈ 273 µM).

In the case of `CCn1cc(-c2nnc(COc3ccccc3)o2)c(=O)c2cc(F)c(N3CCNCC3)cc21`, the IC50 was 76.8 µg/mL (≈ 171 µM).

Take `CN(C)/N=N/c1[nH]cnc1C(N)=O` [DACARBAZINE]: the IC50 amounted to 35 µg/mL (≈ 192 µM).

As a reminder, the IC50 is the concentration at which inhibition is half-maximal.
